Measurements: patent publication US20220280579A1, “Formulations for Prevention or Reduction of C. Difficile Infections” (priority 2019, published 2022)
“And” between values parts separate entries of the source, which are not always exact repeats. Equal entries are not always repeated.

Test system: CD strain 630
Assay: Example 7: Holloway model of CDI, GlcNAc or glucosamine in drinking water
Conditions: for Ethanol resistant CFU, CFU/g faeces: individual mice

Water consumption: Daily consumption per mouse (20 mg/ml in drinking water)	Water consumption: Daily consumption per mouse (50 mg/ml in drinking water)	Water consumption: Daily consumption per mouse (100 mg/ml in drinking water)	SMILES	CD colonisation (mouse, in vivo)	CD infections (CDI) in mice (mouse, in vivo)	Ethanol resistant CFU, CFU/g faeces (20 mg/ml in drinking water, hydrochloride)	Ethanol resistant CFU, CFU/g faeces (50 mg/ml in drinking water)	Ethanol resistant CFU, CFU/g faeces (100 mg/ml in drinking water, hydrochloride)	CD colonisation (levels as low as 20 mg/ml in drinking water, summary in words)	CD infections (CDI) in mice (water containing 20 mg/ml, conclusion in words)
–	–	–	CC(=O)N[C@H]1C(O)O[C@H](CO)[C@@H](O)[C@@H]1O (stereo partly shown) [GlcNAc, N-acetyl-glucosamine]	could suppress CD colonisation	prevented CD infections	–	–	–	–	–
4.2 mL	2.8 mL	1 mL	Cl.N[C@H]1C(O)O[C@H](CO)[C@@H](O)[C@@H]1O (stereo partly shown) [Glucosamine, Glucosamine hydrochloride]	–	–	0.00E+00 CFU/g faeces (5×) and 1.90E+06 CFU/g faeces	0.00E+00 CFU/g faeces	0.00E+00 CFU/g faeces (4×) and 1.70E+05 CFU/g faeces and 8.00E+04 CFU/g faeces	could suppress CD colonisation	prevented CD infections
